The assay has as its target T1, Full-length wild type HIV-1 integrase (SF1) (Human immunodeficiency virus type 1 group M subtype B, UniProt P04585).
T1 construct: made in house; host or cells: E. coli BL21 (DE3), pET24a vector
The experiment in a line: Integrase strand-transfer scintillation proximity assay. Format: biochemical. Conditions: integrase strand-transfer SPA; read-out: IC50. An excerpt: Integrase Strand-Transfer Scintillation Proximity Assay Oligonucleotides
The annealed product represents preprocessed viral ds-DNA derived from the LTR U5 sequence of the viral genome. A ds-DNA control to test for non-specific interactions was made using a 3′ di-deoxy derivative of oligonucleotide #1 annealed to oligonucleotide #2. The CA overhang at the 5′ end of the non-biotinylated strand of the ds-DNA was created artificially by using a complimentary DNA oligonucleotide shortened by 2 base pairs. This configuration eliminates the requisite 3′ processing step of the integrase enzyme prior to the strand-transfer mechanism.
Host ds-DNA was prepared as an unlabeled and [^3H]-thymidine labeled product from annealed oligonucleotide #3—5-[…]-3′ (SEQ ID NO: 3), and oligonucleotide #4—5′-[…]-3′ (SEQ ID NO: 4), both synthesized by TriLink BioTechnologies, Inc. (San Diego, Calif.). The annealed product had overhanging 3′ ends of poly(dA). […] The radiolabeled product was purified using a NENSORB cartridge and stored in stabilized aqueous solution (PerkinElmer).
Reagents: Streptavidin-coated polyvinyltoluene (PVT) SPA beads were purchased from Amersham Biosciences (Piscataway, N.J.). Cesium chloride was purchased from Shelton Scientific, Inc. (Shelton, Conn.). White, polystyrene, flat-bottom, non-binding surface, 96-well plates were purchased from Corning. All other buffer components were purchased from Sigma (St. Louis, Mo.) unless otherwise indicated. Enzyme Construction: Full-length wild type HIV-1 integrase (SF1) sequence (amino acids 1-288) was constructed in a pET24a vector (Novagen, Madison, Wis.). […] Enzyme Purification: Full length wild-type HIV Integrase was expressed in E.coli BL21 (DE3) cells and induced with 1 mM isopropyl-1 thio-β-D-galactopyranoside (IPTG) when cells reached an optical density between 0.8-1.0 at 600 nm. Cells were lysed by microfluidation in 50 mM HEPES pH 7.0, 75 mM NaCl, 5 mM DTT, 1 mM 4-(2-Aminoethyl)benzenesulfonylfluoride HCl (AEBSF). Lysate was then centrifuged 20 minutes at 11 k rpm in GSA rotor in Sorvall RC-5B at 4° C. Supernant was discarded and pellet resuspended in 50 mM HEPES pH 7.0, 750 mM NaCl, 5 mM DTT, 1 mM AEBSF and homogenized in a 40 mL Dounce homogenizer for 20 minutes on ice. Homogenate was then centrifuged 20 minutes at 11 k rpm in SS34 rotor in Sorvall RC-5B at 4° C. Supernant was discarded and pellet resuspended in 50 mM HEPES pH 7.0, 750 mM NaCl, 25 mM CHAPS, 5 mM DTT, 1 mM AEBSF. Preparation was then centrifuged 20 minutes at 11 k rpm in SS34 rotor in Sorvall RC-5B at 4° C.
Supernant was then diluted 1:1 with 50 mM HEPES pH 7.0, 25 mM CHAPS, 1 mM DTT, 1 mM AEBSF and loaded onto a Q-Sepharose column pre-equilibrated with 50 mM HEPES, pH 7.0, 375 mM NaCl, 25 mM CHAPS, 1 mM DTT, 1 mM AEBSF. The flow through peak was collected and NaCl diluted to 0.1 M with 50 mM HEPES pH 7.0, 25 mM CHAPS, 1 mM DTT, 0.5 mM AEBSF and loaded onto a SP-Sepharose column pre-equilibrated with 50 mM HEPES pH 7.0, 100 mM NaCl, 25 mM CHAPS, 1 mM DTT, 0.5 mM AEBSF. After washing the column with the equilibration buffer, a 100 to 400 mM NaCl gradient was run. The eluted integrase was concentrated and run on a S-300 gel diffusion column using 50 mM HEPES pH 7.0, 500 mM NaCl, 25 mM CHAPS, 1 mM DTT, 0.5 mM AEBSF. […] All columns were run in a 4° C. cold room.
Viral DNA Bead Preparation: Streptavidin-coated SPA beads were suspended to 20 mg/mL in 25 mM 3-morpholinopropanesulfonic acid (MOPS) (pH 7.2) and 1.0% NaN3.

As for `O=C(c1cn(Cc2ccc(F)cc2)c2cnc3c(=O)n(O)ccc3c12)N1CCCC1` [Example 26, 3-(4-fluorobenzyl)-7-hydroxy-1-(pyrrolidin-1-ylcarbonyl)-3,7-dihydro-6H-pyrrolo[2,3-c]-1,7-naphthyridin-6-one], the IC50 was 9 nM.

As for `CC(=O)N1CCN(C(=O)c2cn(Cc3ccc(F)cc3)c3cnc4c(=O)n(O)ccc4c23)CC1` [Example 27, 1-[(4-acetylpiperazin-1-yl)carbonyl]-3-(4-fluorobenzyl)-7-hydroxy-3,7-dihydro-6H-pyrrolo[2,3-c]-1,7-naphthyridin-6-one], the IC50 worked out at 13 nM.

In the case of `O=C(NCCc1cnccn1)c1cn(Cc2ccc(F)cc2)c2cnc3c(=O)n(O)ccc3c12` [Example 28, 3-(4-fluorobenzyl)-7-hydroxy-6-oxo-N-(2-pyrazin-2-ylethyl)-6,7-dihydro-3H-pyrrolo[2,3-c]-1,7-naphthyridine-1-carboxamide], the IC50 was 12 nM.

As for `O=C(NCc1ccccn1)c1cn(Cc2ccc(F)cc2)c2cnc3c(=O)n(O)ccc3c12` [Example 29, 3-(4-fluorobenzyl)-7-hydroxy-6-oxo-N-(pyridin-2-ylmethyl)-6,7-dihydro-3H-pyrrolo[2,3-c]-1,7-naphthyridine-1-carboxamide], the IC50 stood at 12 nM.

As to `O=C(NCC(F)(F)F)c1cn(Cc2ccc(F)cc2)c2cnc3c(=O)n(O)ccc3c12` [Example 30, 3-(4-fluorobenzyl)-7-hydroxy-6-oxo-N-(2,2,2-trifluoroethyl)-6,7-dihydro-3H-pyrrolo[2,3-c]-1,7-naphthyridine-1-carboxamide], the IC50 turned out to be 13 nM.

As for `O=c1c2ncc3c(c(COC[C@@H](O)CO)cn3Cc3ccc(F)cc3)c2ccn1O` [Example 31, 1-({[(2S)-2,3-dihydroxypropyl]oxy}methyl)-3-(4-fluorobenzyl)-7-hydroxy-3,7-dihydro-6H-pyrrolo(2,3-c]-1,7-naphthyridin-6-one], the IC50 is 9 nM.

As to `CC(C)(C)OC(=O)N1CCC(COCc2cn(Cc3ccc(F)cc3)c3cnc4c(=O)n(O)ccc4c23)CC1` [Example 32], the IC50 amounted to 108 nM.

Take `O=c1c2ncc3c(c(COCCc4ccccn4)cn3Cc3ccc(F)cc3)c2ccn1O` [Example 33, 3-(4-fluorobenzyl)-7-hydroxy-1-[(2-pyridin-2-ylethoxy)methyl]-3,7-dihydro-6H-pyrrolo[2,3-c]-1,7-naphthyridin-6-one]: the IC50 amounted to 26 nM.

Turning to `O=c1c2ncc3c(c(COCCOC4CCCCC4)cn3Cc3ccc(F)cc3)c2ccn1O` [Example 34, 1-{[2-(cyclohexyloxy)ethoxy]methyl}-3-(4-fluorobenzyl)-7-hydroxy-3,7-dihydro-6H-pyrrolo[2,3-c]-1,7-naphthyridin-6-one], the IC50 came to 45 nM.

On to `COCCOCc1cn(Cc2ccc(F)cc2)c2cnc3c(=O)n(O)ccc3c12` [Example 36, 3-(4-fluorobenzyl)-7-hydroxy-1-[(2-methoxyethoxy)methyl]-3,7-dihydro-6H-pyrrolo[2,3-c]-1,7-naphthyridin-6-one], for which the IC50 was 20 nM.

`O=c1c2ncc3c(c(COC4CCOCC4)cn3Cc3ccc(F)cc3)c2ccn1O` [Example 37, 3-(4-fluorobenzyl)-7-hydroxy-1-[(tetrahydro-2H-pyran-4-yloxy)methyl]-3,7-dihydro-6H-pyrrolo[2,3-c]-1,7-naphthyridin-6-one]: the IC50 came out at 23 nM.

Regarding `O=c1c2ncc3c(c(CNC4(CO)CCCC4)cn3Cc3ccc(F)cc3)c2ccn1O` [Example 39, 3-(4-fluorobenzyl)-7-hydroxy-1-({[1-(hydroxymethyl)cyclopentyl]amino)methyl)-3,7-dihydro-6H-pyrrolo[2,3-c]-1,7-naphthyridin-6-one], the IC50 was determined as 79 nM.

Regarding `CCCNCc1cn(Cc2ccc(F)cc2)c2cnc3c(=O)n(O)ccc3c12` [Example 40, 3-(4-fluorobenzyl)-7-hydroxy-1-[(propylamino)methyl]-3,7-dihydro-6H-pyrrolo[2,3-c]-1,7-naphthyridin-6-one], the IC50 worked out at 62 nM.

As for `Cc1cccc(CNCc2cn(Cc3ccc(F)cc3)c3cnc4c(=O)n(O)ccc4c23)c1` [Example 41, 3-(4-fluorobenzyl)-7-hydroxy-1-{[(3-methylbenzyl)amino]methyl}-3,7-dihydro-6H-pyrrolo[2,3-c]-1,7-naphthyridin-6-one], the IC50 stood at 42 nM.

`Cc1cnc(CNCc2cn(Cc3ccc(F)cc3)c3cnc4c(=O)n(O)ccc4c23)cn1` [Example 42, 3-(4-fluorobenzyl)-7-hydroxy-1-({[(5-methylpyrazin-2-yl)methyl]amino)methyl)-3,7-dihydro-6H-pyrrolo[2,3-c]-1,7-naphthyridin-6-one]: the IC50 is 54 nM.

On to `O=c1c2ncc3c(c(CNCc4ccc(C(F)(F)F)cc4)cn3Cc3ccc(F)cc3)c2ccn1O` [Example 43, 3-(4-fluorobenzyl)-7-hydroxy-1-({[4-(trifluoromethyl)benzyl]amino}methyl)3,7-dihydro-6H-pyrrolo[2,3-c]-1,7-naphthyridin-6-one], for which the IC50 worked out at 122 nM.

For the compound `O=c1c2ncc3c(c(CNCc4ccccn4)cn3Cc3ccc(F)cc3)c2ccn1O` [Example 44], the IC50 is 31 nM.

Turning to `O=C1c2ncc3c(ccn3Cc3ccc(F)cc3)c2CCCN1O` [Example 45, 3-(4-fluorobenzyl)-7-hydroxy-7,8,9,10-tetrahydropyrrolo[3′,2′: 4,5]pyrido[2,3-c]azepin-6(3H)-one], the IC50 is 24 nM.

In the case of `CCCCc1cc2c(ncc3c2ccn3Cc2ccc(F)cc2)c(=O)n1O` [Example 46, 8-butyl-3-(4-fluorobenzyl)-7-hydroxy-3,7-dihydro-6H-pyrrolo[2,3-c]-1,7-naphthyridin-6-one], the IC50 turned out to be 49 nM.

As for `Cc1cc2c(ncc3c2ccn3Cc2ccc(F)cc2)c(=O)n1O` [Example 47, 3-(4-fluorobenzyl)-7-hydroxy-8-methyl-3,7-dihydro-6H-pyrrolo[2,3-c]-1,7-naphthyridin-6-one], the IC50 was determined as 11 nM.

Regarding `CCCN(CCO)Cc1cn(Cc2ccc(F)cc2)c2cnc3c(=O)n(O)ccc3c12` [Example 48, 3-(4-fluorobenzyl)-7-hydroxy-1-{[(2-hydroxyethyl)(propyl)amino]methyl}-3,7-dihydro-6H-pyrrolo[2,3-c]-1,7-naphthyridin-6-one], the IC50 worked out at 11 nM.

Regarding `O=c1c2ncc3c(c(CN4CCCCC4CO)cn3Cc3ccc(F)cc3)c2ccn1O` (stereo not drawn) [Example 49, 3-(4-fluorobenzyl)-7-hydroxy-1-{[2-(hydroxymethyl)piperidin-1-yl]methyl}-3,7-dihydro-6H-pyrrolo[2,3-c]-1,7-naphthyridin-6-one], the IC50 is 13 nM.

In the case of `CCN(CC)CCN(CC)Cc1cn(Cc2ccc(F)cc2)c2cnc3c(=O)n(O)ccc3c12` [Example 50, 1-{[[2-(diethylamino)ethyl] (ethyl)amino]methyl}-3-(4-fluorobenzyl)-7-hydroxy-3,7-dihydro-6H-pyrrolo[2,3-c]-1,7-naphthyridin-6-one], the IC50 worked out at 11.5 nM.

With `CCN(Cc1ccc(C)cc1)Cc1cn(Cc2ccc(F)cc2)c2cnc3c(=O)n(O)ccc3c12` [Example 51, 1-{[ethyl(4-methylbenzyl)amino]methyl}-3-(4-fluorobenzyl)-7-hydroxy-3,7-dihydro-6H-pyrrolo[2,3-c]-1,7-naphthyridin-6-one], the IC50 was determined as 17.5 nM.
